Paper PMC6407917, “Identification of GSK3186899/DDD853651 as a Preclinical Development Candidate for the Treatment of Visceral Leishmaniasis” (Journal of Medicinal Chemistry, 2018)
pIC50: −log10 of the molar value.

What was measured:
Assay in all cases: biochemical
Set-up in all cases: species or system HEK293/K-562/placenta mixed human extract; Kinobeads chemoproteomic competition binding, quantified by TMT LC-MS/MS, dose response up to 20 uM
[1] = target: BMPR1A (Homo sapiens, UniProt P36894)
[2] = target: CAMK1 (Homo sapiens, UniProt Q14012)
[3] = target: CDK7 (Homo sapiens, UniProt P50613)
[4] = target: CLK2 (Homo sapiens, UniProt P49760)
[5] = target: EIF2AK4 (Homo sapiens, UniProt Q9P2K8)
[6] = target: EPHA5 (Homo sapiens, UniProt P54756)
[7] = target: EPHA7 (Homo sapiens, UniProt Q15375)
[8] = target: EPHB4 (Homo sapiens, UniProt P54760)
[9] = target: IKBKE (Homo sapiens, UniProt Q14164)
[10] = target: IKBKG (Homo sapiens, UniProt Q9Y6K9)
[11] = target: MAP3K2 (Homo sapiens, UniProt Q9Y2U5)
[12] = target: MAP3K3 (Homo sapiens, UniProt Q99759)
[13] = target: MAP3K7 (Homo sapiens, UniProt O43318)
[14] = target: MAP4K5 (Homo sapiens, UniProt Q9Y4K4)
[15] = target: MAPK14 (Homo sapiens, UniProt Q16539)
[16] = target: MARK4 (Homo sapiens, UniProt Q96L34)
[17] = target: NEK3 (Homo sapiens, UniProt P51956)
[18] = target: PIP4K2B (Homo sapiens, UniProt P78356)
[19] = target: PIP4K2C (Homo sapiens, UniProt Q8TBX8)
[20] = target: PKN2 (Homo sapiens, UniProt Q16513)
[21] = target: RB1CC1 (Homo sapiens, UniProt Q8TDY2)

Measured: pIC50

EIF2AK4, sequence (Q9P2K8 whole entry): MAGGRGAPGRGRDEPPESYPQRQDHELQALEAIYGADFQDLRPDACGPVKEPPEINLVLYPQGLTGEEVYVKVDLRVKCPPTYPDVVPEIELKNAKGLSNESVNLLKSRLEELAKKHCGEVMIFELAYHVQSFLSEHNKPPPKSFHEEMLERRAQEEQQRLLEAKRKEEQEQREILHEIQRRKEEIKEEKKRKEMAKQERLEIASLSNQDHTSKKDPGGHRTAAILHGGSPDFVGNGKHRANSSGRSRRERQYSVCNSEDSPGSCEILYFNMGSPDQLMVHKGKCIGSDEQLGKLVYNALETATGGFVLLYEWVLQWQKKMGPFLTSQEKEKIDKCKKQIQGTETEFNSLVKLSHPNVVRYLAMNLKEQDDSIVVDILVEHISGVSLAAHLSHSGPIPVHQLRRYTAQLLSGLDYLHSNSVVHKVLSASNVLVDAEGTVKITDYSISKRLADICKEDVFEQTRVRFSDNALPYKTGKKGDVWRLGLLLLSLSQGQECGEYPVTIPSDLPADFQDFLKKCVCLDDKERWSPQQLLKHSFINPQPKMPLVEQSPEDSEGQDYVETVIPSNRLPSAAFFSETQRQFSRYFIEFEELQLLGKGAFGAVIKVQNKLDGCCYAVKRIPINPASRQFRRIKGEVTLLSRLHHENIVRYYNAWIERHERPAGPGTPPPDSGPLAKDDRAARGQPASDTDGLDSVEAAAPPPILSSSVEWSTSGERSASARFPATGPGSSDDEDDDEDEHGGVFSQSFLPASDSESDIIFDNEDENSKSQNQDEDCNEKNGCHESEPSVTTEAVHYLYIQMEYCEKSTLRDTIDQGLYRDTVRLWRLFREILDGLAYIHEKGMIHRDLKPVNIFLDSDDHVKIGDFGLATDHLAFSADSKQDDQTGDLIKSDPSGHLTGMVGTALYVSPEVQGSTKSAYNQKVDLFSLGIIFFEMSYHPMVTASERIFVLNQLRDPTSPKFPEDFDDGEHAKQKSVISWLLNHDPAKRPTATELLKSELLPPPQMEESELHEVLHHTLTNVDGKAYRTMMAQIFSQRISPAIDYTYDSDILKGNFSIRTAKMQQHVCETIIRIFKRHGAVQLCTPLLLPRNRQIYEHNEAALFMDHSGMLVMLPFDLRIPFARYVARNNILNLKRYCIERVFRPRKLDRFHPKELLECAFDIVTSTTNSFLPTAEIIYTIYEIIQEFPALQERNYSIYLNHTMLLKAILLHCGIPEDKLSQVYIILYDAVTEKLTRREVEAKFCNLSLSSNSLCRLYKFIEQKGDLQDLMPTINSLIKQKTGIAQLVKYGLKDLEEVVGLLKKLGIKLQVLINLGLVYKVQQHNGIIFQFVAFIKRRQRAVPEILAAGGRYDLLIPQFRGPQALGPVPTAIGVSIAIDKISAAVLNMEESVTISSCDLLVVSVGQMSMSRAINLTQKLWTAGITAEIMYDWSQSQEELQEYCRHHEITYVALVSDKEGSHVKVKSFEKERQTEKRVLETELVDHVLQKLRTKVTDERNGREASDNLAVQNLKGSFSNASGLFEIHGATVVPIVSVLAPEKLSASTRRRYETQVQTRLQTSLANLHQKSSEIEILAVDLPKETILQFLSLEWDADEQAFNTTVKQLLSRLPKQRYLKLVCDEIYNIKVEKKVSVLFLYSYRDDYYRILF
MAPK14, sequence (Q16539 whole entry): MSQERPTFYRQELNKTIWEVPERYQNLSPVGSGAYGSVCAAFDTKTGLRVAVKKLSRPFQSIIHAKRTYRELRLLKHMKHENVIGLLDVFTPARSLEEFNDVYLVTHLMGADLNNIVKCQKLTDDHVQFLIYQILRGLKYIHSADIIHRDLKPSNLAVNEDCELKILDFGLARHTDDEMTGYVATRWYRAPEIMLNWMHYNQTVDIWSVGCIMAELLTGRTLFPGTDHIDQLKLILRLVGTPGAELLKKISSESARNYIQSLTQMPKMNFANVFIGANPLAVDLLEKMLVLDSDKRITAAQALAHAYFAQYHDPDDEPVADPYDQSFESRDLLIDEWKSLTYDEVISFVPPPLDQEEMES
PKN2, sequence (Q16513 whole entry): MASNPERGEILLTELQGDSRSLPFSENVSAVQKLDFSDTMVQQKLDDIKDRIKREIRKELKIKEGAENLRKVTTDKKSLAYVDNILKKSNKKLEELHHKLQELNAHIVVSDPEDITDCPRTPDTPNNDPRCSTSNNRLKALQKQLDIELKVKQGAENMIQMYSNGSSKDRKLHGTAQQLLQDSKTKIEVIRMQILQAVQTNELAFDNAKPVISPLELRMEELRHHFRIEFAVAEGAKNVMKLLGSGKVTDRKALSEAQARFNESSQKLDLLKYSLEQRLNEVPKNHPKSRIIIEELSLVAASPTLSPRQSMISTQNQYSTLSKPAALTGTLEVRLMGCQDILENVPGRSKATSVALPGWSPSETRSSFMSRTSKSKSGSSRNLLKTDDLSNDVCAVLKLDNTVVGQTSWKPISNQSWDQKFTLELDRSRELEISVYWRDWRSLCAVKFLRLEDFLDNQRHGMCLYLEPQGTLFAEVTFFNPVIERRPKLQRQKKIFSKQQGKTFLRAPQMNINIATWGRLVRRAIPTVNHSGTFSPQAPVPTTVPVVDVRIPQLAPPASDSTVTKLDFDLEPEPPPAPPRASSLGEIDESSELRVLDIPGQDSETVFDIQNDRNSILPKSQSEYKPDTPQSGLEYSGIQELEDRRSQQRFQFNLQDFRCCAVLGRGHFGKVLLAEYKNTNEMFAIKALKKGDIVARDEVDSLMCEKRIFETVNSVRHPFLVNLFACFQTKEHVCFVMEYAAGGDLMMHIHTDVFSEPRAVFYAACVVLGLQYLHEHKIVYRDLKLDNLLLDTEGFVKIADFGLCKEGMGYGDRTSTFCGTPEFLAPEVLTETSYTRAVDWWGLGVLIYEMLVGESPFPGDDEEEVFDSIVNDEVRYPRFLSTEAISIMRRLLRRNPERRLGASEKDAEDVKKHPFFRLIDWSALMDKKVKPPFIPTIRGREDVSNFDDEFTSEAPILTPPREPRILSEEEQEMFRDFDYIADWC
CLK2, sequence (P49760 whole entry): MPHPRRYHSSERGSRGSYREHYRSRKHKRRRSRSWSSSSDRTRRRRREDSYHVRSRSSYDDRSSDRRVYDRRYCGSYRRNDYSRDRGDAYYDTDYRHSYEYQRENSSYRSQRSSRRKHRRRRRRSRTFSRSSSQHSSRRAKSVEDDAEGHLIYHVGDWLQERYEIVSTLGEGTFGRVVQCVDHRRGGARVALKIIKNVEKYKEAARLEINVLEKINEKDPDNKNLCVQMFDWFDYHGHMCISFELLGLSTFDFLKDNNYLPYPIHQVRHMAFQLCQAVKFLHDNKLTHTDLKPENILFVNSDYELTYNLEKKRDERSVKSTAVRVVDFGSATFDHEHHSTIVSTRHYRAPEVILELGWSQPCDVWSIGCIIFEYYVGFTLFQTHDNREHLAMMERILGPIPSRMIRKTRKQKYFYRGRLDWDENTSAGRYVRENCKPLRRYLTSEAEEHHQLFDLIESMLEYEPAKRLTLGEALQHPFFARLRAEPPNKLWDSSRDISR
MAP4K5, sequence (Q9Y4K4 whole entry): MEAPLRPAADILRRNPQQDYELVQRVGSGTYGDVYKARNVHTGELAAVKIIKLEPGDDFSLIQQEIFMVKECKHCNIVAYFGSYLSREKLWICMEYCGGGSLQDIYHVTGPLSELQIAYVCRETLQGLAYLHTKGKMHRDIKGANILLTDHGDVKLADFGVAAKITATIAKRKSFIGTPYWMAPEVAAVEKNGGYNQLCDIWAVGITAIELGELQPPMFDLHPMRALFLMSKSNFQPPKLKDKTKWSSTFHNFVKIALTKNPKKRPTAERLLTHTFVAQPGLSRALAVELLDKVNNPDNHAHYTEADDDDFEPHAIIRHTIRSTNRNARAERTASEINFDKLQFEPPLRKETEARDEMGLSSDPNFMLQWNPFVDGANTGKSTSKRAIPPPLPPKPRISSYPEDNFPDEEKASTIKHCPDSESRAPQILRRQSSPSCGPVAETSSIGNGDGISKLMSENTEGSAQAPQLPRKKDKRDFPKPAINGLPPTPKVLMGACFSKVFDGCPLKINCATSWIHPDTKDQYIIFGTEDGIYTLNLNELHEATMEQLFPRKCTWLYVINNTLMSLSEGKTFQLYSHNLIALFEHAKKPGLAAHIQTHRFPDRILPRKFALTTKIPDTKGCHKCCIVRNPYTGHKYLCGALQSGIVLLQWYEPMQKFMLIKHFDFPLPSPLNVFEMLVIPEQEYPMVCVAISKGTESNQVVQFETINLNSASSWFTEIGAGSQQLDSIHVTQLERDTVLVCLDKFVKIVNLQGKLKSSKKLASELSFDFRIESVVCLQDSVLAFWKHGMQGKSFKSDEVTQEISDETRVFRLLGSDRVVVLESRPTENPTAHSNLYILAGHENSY
BMPR1A, sequence (P36894 whole entry): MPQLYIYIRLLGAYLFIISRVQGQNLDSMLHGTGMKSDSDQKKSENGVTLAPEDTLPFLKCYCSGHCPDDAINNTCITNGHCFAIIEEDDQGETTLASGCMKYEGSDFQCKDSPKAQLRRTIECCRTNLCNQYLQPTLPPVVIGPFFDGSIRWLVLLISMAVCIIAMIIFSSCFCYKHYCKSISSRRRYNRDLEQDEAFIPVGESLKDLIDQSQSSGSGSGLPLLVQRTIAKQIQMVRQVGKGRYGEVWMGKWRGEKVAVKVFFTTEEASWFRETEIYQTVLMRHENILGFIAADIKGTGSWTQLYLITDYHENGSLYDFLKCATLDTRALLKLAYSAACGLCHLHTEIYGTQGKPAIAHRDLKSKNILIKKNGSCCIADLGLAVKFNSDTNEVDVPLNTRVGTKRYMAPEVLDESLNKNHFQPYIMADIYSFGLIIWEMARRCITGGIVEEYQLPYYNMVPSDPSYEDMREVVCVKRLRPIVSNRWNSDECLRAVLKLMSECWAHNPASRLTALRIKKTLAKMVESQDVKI

COc1nc(N[C@H]2CC[C@H](NS(=O)(=O)CC(C)C)CC2)nc2[nH]nc(N3CCOC[C@H]3C)c12 [compound 39, N-(trans-4-((4-Methoxy-3-((R)-3-methylmorpholino)-1H-pyrazolo[3,4-d]pyrimidin-6-yl)amino)cyclohexyl)-2-methylpropane-1-sulfonamide]
5.60: [3]
≤ 4.70: all other assays above
